Patent publication US20050175535A1 (CV Therapeutics, Inc., priority 2000, published 2005)
Where two headings read alike, the source gives them in different places.

Tests used:
[1] = tested on: rat isolated perfused heart; experiment: Reversal time of coronary vasodilation in rat isolated perfused hearts; conditions: bolus, rat isolated perfused heart;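 further: each agonist bolused at its minimal concentration giving equal maximal coronary conductance rise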
Procedure: FIG. 10. Reversal of effect of agonist stimulation on CC. […] CC was measured at 8, 16 and 24 minutes after administration (FIG. 10A). […] R and N are the correlation coefficient and number of agonists, respectively.
The relationship between the affinity of agonists for the A2A receptor and the rate of reversal of agonist-mediated responses (coronary vasodilation in heart and cAMP accumulation in PC12 cells) upon termination of drug administration were determined. […] The duration of the coronary vasodilation in isolated rat hearts caused by adenosine, the CVT compounds, and other agonists measured as the time to 50% and 90% (t0.5 and t0.9, respectively) reversal of the increases in coronary conductance after termination of drug administration are summarized in Table 4.

A2A adenosine receptors = A2A adenosine receptors (Sus scrofa, UniProt K9IW67); experiment: Competitive radioligand binding, [3H]ZM241385, pig striatum membranes; conditions: [3H]ZM241385, Gpp(NH)p present
Procedure: Membranes were also obtained from porcine striatial cells as follows. […] The homogenate was filtered through cotton gauze and centrifuged at 48,000g for 15 minutes at 4° C. […] The final pellet was frozen at −80° C. until used for receptor binding assays.

[2] = Coronary blood flow and reversal time, intracoronary infusion in open-chest anesthetized pigs; type: in vivo
Procedure: The magnitude of the effect of A2A adenosine receptor agonists on coronary dilation and the duration of the effect was determined in pigs weighing 22-27 kg. […] In addition, animals were used in accordance with the guidelines of the University of Kentucky Institutional Animal Care and Use Protocol.
Anesthesia was maintained with additional sodium pentobarbital (1.5-2 mg/kg, i.v.) every 15-20 minutes. Animals were ventilated via a tracheotomy tube using a mixture of room air and 100% O2. Tidal volume, respiratory rate and fraction of O2 in inspired air were adjusted to maintain arterial blood gas (ABG) and pH values. […] Lactate Ringers solution was administered via an ear or femoral vein as an initial bolus of 300-400 ml followed by a continuous infusion at a rate of 5-7 ml/kg/hr. A catheter was inserted into the femoral artery to monitor arterial blood pressure.
The heart was exposed through a median sternotomy and suspended in a pericardial cradle. Left ventricular pressure (LVP) was measured with a 5F high fidelity pressure sensitive tip transducer (Millar Instruments, Houston, Tex.) placed in the left ventricular cavity via an apical incision and secured with a purse string suture. A segment of the left anterior descending coronary artery (LAD), proximal to the origin of the first diagonal branch, was dissected free of surrounding tissue. A transit time perivascular flow probe (Transonic Systems Inc., Ithaca, N.Y.) was placed around this segment to measure CBF. Proximal to the flow probe, a 24-gauge modified angiocatheter was inserted for intracoronary infusions. […] The A2A adenosine receptors agonists were administered intracoronary.
Relationship between affinity of various agonists for A2A adenosine receptor and the reversal time of their effect to increase coronary conductance was determined in pigs. Each experiment was preceded by a 30-minute stabilization period following the completion of all instrumentation of the animal. Baseline hemodynamic data were then recorded and an intracoronary infusion of an A2A Adenosine receptors agonist was initiated. Each infusion was maintained for 4-5 minutes to allow LAD CBF to reach a steady-state, after which the infusion was terminated. The times to recovery of CBF by 50% (t0.5) and 90% (t0.9) of the difference from peak effect to baseline CBF were recorded. Ten to 15 minutes after CBF returned to pre-drug values a second infusion with a different agonist was started. […] Hemodynamic measurements were made prior to and following the initiation of the phenylephrine infusion. The phenylephrine infusion rate was adjusted during and following the infusions of the adenosine receptor agonists to maintain arterial blood pressure within 5 mmHg of pre-infusion values. The effect of a maximum of three different agonists was determined in each experiment.

[3] = molecular target: T1, human A1 adenosine receptors (Homo sapiens, UniProt P30542); experiment: Competitive radioligand binding, [3H]CPX, CHO-hA1AdoR membranes; conditions: in words
T1 construct: expressed in transfected cells
T1 sequence (P30542 1-326): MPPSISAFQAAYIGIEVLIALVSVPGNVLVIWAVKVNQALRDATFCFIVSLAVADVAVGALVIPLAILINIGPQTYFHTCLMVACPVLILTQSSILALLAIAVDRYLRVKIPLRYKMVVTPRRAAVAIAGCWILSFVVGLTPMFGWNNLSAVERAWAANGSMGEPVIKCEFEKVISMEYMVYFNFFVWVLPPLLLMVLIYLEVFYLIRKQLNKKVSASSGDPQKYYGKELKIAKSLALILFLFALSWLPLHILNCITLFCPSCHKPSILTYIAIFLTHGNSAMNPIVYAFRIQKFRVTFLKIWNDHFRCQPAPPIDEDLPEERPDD
Procedure: The cell suspensions were homogenized and centrifuged at 48,000g for 15 minutes. The pellets were washed three times by re-suspension in ice-cold Tris-HCl buffer and centrifugation. The final pellet was re-suspended in Tris-HCl, aliquoted and frozen at −80° C. until used for receptor binding assays.

[4] = tested on: rat isolated perfused heart; experiment: Coronary conductance / coronary perfusion pressure in isolated perfused rat hearts; conditions: for EC50: Rattus norvegicus
Procedure: Briefly, rats of either sex weighing 230-260 grams were anesthetized by intraperitoneal injection of a mixture of ketamine (100 mg/ml) and xylazine (20 mg/ml). The chest of each rat was opened and the heart removed, and rinsed in ice-cold modified Krebs-Henseleit (K-H) solution containing NaCl 117.9, KCl 4.5, CaCl2 2.5, MgSO4 1.18, KH2PO4 1.18, pyruvate 2.0 mmo/L. The aorta was cannulated and the heart was perfused at a flow rate of 10 ml/min with modified K-H solution. The K-H solution (pH 7.4) was gassed continuously with 95% O2 and 5% CO2 and warmed to 35±0.5° C. The heart was electrically paced at a fixed cycle length of 240 ms (250 beats/min) using a bipolar electrode placed in the left atrium. The electrical stimuli were generated by a Grass stimulator (Model S48, W. Warwick, R.I.) and delivered through a Stimuli Isolation Unit (Model SIU5, Astro-Med, Inc., NY) as square-wave pulses of 3-msec in duration and with an amplitude of at least twice the threshold intensity.
The identity of the adenosine receptor subtype (A1 or A2A) mediating the coronary vasodilation was determined.
Coronary perfusion pressure (CPP) was measured using a pressure transducer that was connected to the aortic cannula via a T-connector positioned approximately 3 cm above the heart. CPP was monitored throughout an experiment and recorded either on a chart recorder (Gould Recorder 2200S, Valley View, Ohio) or a computerized recording system (PowerLab/4S, ADInstruments Pty Ltd, Australia). Only hearts with CPP ranging from 60 to 85 mmHg (in the absence of drugs) were used in the study. CC conductance (in ml/min/mmHg) was calculated as the ratio between coronary perfusion rate (10 ml/min) and CPP.

[5] = read-out: Ki, Pig Strialum (A2A)
[6] = read-out: pKi ± SEM, Pig Strialum (A2A) (converted)

Sequence of A2A adenosine receptors (K9IW67 1-409): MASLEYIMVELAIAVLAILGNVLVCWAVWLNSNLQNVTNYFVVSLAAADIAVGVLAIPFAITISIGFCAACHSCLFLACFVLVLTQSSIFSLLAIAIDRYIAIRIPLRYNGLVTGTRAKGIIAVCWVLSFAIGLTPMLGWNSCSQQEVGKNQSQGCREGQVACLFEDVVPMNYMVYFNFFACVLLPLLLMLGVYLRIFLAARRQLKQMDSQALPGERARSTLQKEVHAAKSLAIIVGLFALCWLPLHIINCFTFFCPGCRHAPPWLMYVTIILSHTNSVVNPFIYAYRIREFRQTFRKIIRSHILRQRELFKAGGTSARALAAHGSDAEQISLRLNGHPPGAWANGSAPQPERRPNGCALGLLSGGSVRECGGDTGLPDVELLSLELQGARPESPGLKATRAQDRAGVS

| Ki (A2A adenosine receptors; [5]) [nM] | SMILES | t0.5, time to 50% reversal of the increase in coronary conductance [1] [min] | t0.9, time to 90% reversal of the increase in coronary conductance [1] [min] | also measured |
| --- | --- | --- | --- | --- |
| 1010 | Nc1nc(-c2cccs2)nc2c1ncn2[C@@H]1O[C@H](CO)[C@@H](O)[C@H]1O [CVT-3003, (4S,2R,3R,5R)-2-(6-amino-2-(2-thienyl)pruin-9-yl)-5-(hydroxymethyl)oxolane-3,4-diol] | 3.4 ± 0.1 | 9.2 ± 2.2 |  |
| 94 | N#Cc1ccc(OCC#Cc2nc(N)c3ncn([C@@H]4O[C@H](CO)[C@@H](O)[C@H]4O)c3n2)cc1 [CVT-3101, 4-(3-{9-[(4S,2R,3R,5R)-3,4-dihydroxy-5-(hydroxymethyl)oxolan-2-yl]-6-aminopurin-2-yl}prop-2-ynyloxy)benzenecarbonitrile] | 16.7 ± 0.5 | 25.6 ± 0.3 |  |
| 502 | Cc1ccc(-c2cnn(-c3nc(N)c4ncn([C@@H]5O[C@H](CO)[C@@H](O)[C@H]5O)c4n3)c2)cc1 | 13.6 ± 1.3 | 18.9 ± 1.9 | Ki (A2A adenosine receptors; [6]): 490 nM |
| 64 | CCOC(=O)c1cnn(-c2nc(N)c3ncn([C@@H]4O[C@H](CO)[C@@H](O)[C@H]4O)c3n2)c1 [CVT-3127, ethyl 1-{9-[(4S,2R,3R,5R)-3,4-dihydroxy-5-(hydromethyl)oxolan-2-yl]-6-aminopurin-2-yl}pyrazole-4-carboxylate] | 14.8 ± 2.1 | 15.0 ± 0.8 | Ki (A2A adenosine receptors; [6]): 60.3 nM |
| 1110 | C[C@H](Cc1ccccc1)Nc1ncnc2c1ncn2[C@@H]1O[C@H](CO)[C@@H](O)[C@H]1O [R-PIA, Phenylisopropyladenosine, reference compound] |  |  | pKi ± SEM, Pig Strialum (A2A) (A2A adenosine receptors): 5.96 ± 0.06 |
| 697 | Cc1ccc(-c2nc(N)c3ncn([C@@H]4O[C@H](CO)[C@@H](O)[C@H]4O)c3n2)s1 [CVT-3100] | 5.1 ± 0.6 | 10.1 ± 0.2 |  |
|  | Nc1nc(-n2cc(-c3ccc(Cl)cc3)cn2)nc2c1ncn2[C@@H]1O[C@H](CO)[C@@H](O)[C@H]1O [CVT-3141, (4S,2R,3R,5R)-2-{6-amino-2-[4-(4-chlorophenyl)pyrazole]purin-9-yl}-5-(hydroxymethyl)oxolane-3,4-diol] | 14.4 ± 1.9 | 21.3 ± 3.9 |  |
| 7.96 | CCCCC#Cc1nc(N)c2ncn([C@@H]3O[C@H](C(=O)NCC)[C@@H](O)[C@H]3O)c2n1 [HENECA, 2-hexynyladenosine-5′-N-ethyl-, reference compound] | 28.6 ± 1.1 | 32.8 ± 3.1 | pKi ± SEM, Pig Strialum (A2A) (A2A adenosine receptors): 8.10 ± 0.08 |
| 16.3 | CCCCCCC#Cc1nc(N)c2ncn([C@@H]3O[C@H](CO)[C@@H](O)[C@H]3O)c2n1 [YT-146, reference compound] | 17.7 ± 1.0 | 25.8 ± 4.0 | pKi ± SEM, Pig Strialum (A2A) (A2A adenosine receptors): 7.86 ± 0.33; CBF (fold-increase) ([2]; 1 ug/kg/min intracoronary): 3.44 ± 0.47 fold; t0.5 reversal of increase in coronary blood flow ([2]; 1 ug/kg/min intracoronary): 17.8 ± 3.4 min; t0.9 reversal of increase in coronary blood flow ([2]; 1 ug/kg/min intracoronary): 32.9 ± 5.6 min |
|  | CCNC(=O)[C@H]1O[C@@H](n2cnc3c(N)nc(NCCc4ccc(CCC(=O)O)cc4)nc32)[C@H](O)[C@@H]1O [CGS21680, 2-p-(2-carboxy-ethyl) phenethyl-amino-5′-N-ethylcarboxamido-adenosine, reference compound] |  |  | affinity for the A1 receptor expressed by CHO-K1 cells [3]: relatively low affinities; decrease in coronary perfusion pressure ([4]; 100 nM, isolated rat heart): 23 mmHg; EC50 ([4]; read-out: EC50, Coronary Conductance (Rat Isolated Heart)): 0.54 nM; EC50 ([4]; read-out: pEC50 ± SEM, Coronary Conductance (Rat Isolated Heart) (converted)): 0.537 nM; effect on coronary conductance ([4]; isolated rat hearts, in words): concentration-dependent increases in coronary conductance; t0.5 reversal of increase in coronary blood flow ([2]; 2 ug/kg/min intracoronary): 9.7 ± 0.8 min; t0.9 reversal of increase in coronary blood flow ([2]; 2 ug/kg/min intracoronary): 21.4 ± 0.8 min |
| 64 | Nc1nc(C#CCOc2ccccc2Cc2ccccc2)nc2c1ncn2[C@@H]1O[C@H](CO)[C@@H](O)[C@H]1O [CVT-3006, (4S,2R,3R,5R)-2-(6-amino-2-{3-[2-benzylphenoxy]prop-1-ynyl}purin-9-yl)-5-(hydroxymethyl)oxolane-3,4-diol] | 16.1 ± 0.1 | 21.8 ± 2.0 | Ki (A2A adenosine receptors; [6]): 57.5 nM |
| 1670 | Nc1nc(-c2cnn(CCCc3ccccc3)c2)nc2c1ncn2[C@@H]1O[C@H](CO)[C@@H](O)[C@H]1O [CVT-3126, (4S,2R,3R,5R)-2-{6-amino-2-[1-(3-phenylpropyl)pyrazol-4-yl]purin-9-yl}-5-(hydroxymethyl)oxolane-3,4-diol] | 8.3 ± 0.4 | 12.6 ± 0.3 |  |
